Experimental data from ChEMBL document CHEMBL1671721, “Chemical validation of phosphodiesterase C as a chemotherapeutic target in Trypanosoma cruzi, the etiological agent of Chagas' disease” (Antimicrob Agents Chemother, 2010).
Activity calls are given as the source filed them. The rule behind the calls is not given here.

Key:
[1] = target: T1, Cyclic nucleotide specific phosphodiesterase (Trypanosoma cruzi, UniProt Q53I59); assay: Inhibition of Trypanosoma cruzi Y PDEC after 30 mins
T1 sequence (Q53I59 whole entry): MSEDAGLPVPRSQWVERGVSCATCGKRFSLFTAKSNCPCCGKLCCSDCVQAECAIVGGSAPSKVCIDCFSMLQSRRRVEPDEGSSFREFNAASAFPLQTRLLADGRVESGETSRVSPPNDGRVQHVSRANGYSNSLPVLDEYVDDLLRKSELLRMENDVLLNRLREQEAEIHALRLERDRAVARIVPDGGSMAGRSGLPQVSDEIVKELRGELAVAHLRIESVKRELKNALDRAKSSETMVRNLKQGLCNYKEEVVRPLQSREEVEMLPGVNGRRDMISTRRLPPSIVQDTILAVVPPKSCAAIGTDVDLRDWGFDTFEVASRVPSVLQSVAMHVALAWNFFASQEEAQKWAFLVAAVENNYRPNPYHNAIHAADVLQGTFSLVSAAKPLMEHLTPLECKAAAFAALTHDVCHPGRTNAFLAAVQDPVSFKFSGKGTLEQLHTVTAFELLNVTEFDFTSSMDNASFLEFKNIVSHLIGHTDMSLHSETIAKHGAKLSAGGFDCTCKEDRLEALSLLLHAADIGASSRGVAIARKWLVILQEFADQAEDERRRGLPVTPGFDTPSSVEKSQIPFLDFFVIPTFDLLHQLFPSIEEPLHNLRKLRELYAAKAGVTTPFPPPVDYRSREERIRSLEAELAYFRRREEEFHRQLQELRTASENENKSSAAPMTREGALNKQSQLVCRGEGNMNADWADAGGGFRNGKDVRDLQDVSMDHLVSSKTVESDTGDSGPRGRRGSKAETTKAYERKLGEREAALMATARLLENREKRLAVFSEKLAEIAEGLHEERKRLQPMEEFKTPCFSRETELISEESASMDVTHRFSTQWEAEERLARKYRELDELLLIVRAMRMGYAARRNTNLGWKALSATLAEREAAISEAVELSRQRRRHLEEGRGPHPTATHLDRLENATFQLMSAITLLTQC

[2] = Cytotoxicity against rat L6E9 myoblasts at >10 uM
[3] = Cytotoxicity against rat L6E9 myoblasts at 1 to 25 uM
Trypanosoma cruzi = assay: Antimicrobial activity against Trypanosoma cruzi Y infected in rat L6E9 myoblasts assessed as inhibition of [5,6-3H]uracil incorporation after 3 days postinfection by scintillation counter; type: functional, organism-based
Phosphodiesterase 4 = Phosphodiesterase 4 (Homo sapiens, UniProt P27815+Q08499+Q07343+Q08493); assay: Inhibition of human PDE4 after 30 mins; type: protein assay
[4] = target: T2, Cyclic nucleotide specific phosphodiesterase (Trypanosoma cruzi) (UniProt Q53I59); assay: Inhibition of Trypanosoma cruzi Y PDEC assessed as cAMP accumulation at 43 uM after 1 to 5 mins by luminescence spectrophotometry
T2 sequence (whole entry): T1 sequence (Q53I59 whole entry)

[5] = target: T2, Cyclic nucleotide specific phosphodiesterase (Trypanosoma cruzi); assay: Inhibition of Trypanosoma cruzi Y PDEC assessed as cAMP accumulation at 26 uM after 1 to 5 mins by luminescence spectrophotometry
[6] = target: T2, Cyclic nucleotide specific phosphodiesterase (Trypanosoma cruzi); assay: Inhibition of Trypanosoma cruzi Y PDEC assessed as cAMP accumulation at 4.5 to 45 uM after 1 to 5 mins by luminescence spectrophotometry
[7] = target: T2, Cyclic nucleotide specific phosphodiesterase (Trypanosoma cruzi); assay: Inhibition of Trypanosoma cruzi Y PDEC assessed as cAMP accumulation at 90 uM after 1 to 5 mins by luminescence spectrophotometry
[8] = Cytotoxicity against rat L6E9 myoblasts upto 1 uM
[9] = Cytotoxicity against rat L6E9 myoblasts at >25 uM

SMILES | IC50 [1] | Activity [3] | IC50 (Trypanosoma cruzi) | IC50 (Phosphodiesterase 4) | other results
O=S(=O)(Cc1noc(CSc2ccc(Cl)cc2)n1)c1ccccn1 | > 10 µM | Non-toxic |  |  | Activity [2]: Toxic
COc1ccc(C(=O)CCc2ccccc2)cc1OC1CCOC1 (stereo not drawn) | > 10 µM | Non-toxic | 5.6 µM | 2.3 µM | 
CCCC(=O)c1ccc(OC(F)F)c(OC2CCOCC2)c1 | 4.8 µM | Non-toxic | 1.6 µM | 0.35 µM | inhibition [4]: Active; inhibition [5]: Active; inhibition [6]: Active; inhibition [7]: Active
CCCC(=O)c1ccc(OC2CCOC2)c(OC)c1 (stereo not drawn) | 5.6 µM | Non-toxic | 3.7 µM | 24 µM | 
O=C(CCc1ccccc1)c1ccc(OC(F)F)c(OC2CCOC2)c1 (stereo not drawn) | 2.5 µM | Non-toxic | 3.1 µM | 0.18 µM | 
O=Cc1ccc(OC(F)F)c(O)c1 | > 10 µM | Non-toxic | 11 µM |  | 
O=C1c2ccccc2S(=O)(=O)N1Cc1nc2ccccc2s1 | 5.5 µM | Non-toxic | 3.3 µM |  | 
CCOC(=O)Cc1csc(NC(=O)Nc2ccc(Cl)c(Cl)c2)n1 | 3.6 µM | Non-toxic |  |  | Activity [8]: Toxic
NNC(=O)c1csc(COc2ccc(C3SCCS3)cc2)n1 | > 10 µM | Non-toxic | > 10 µM |  | 
O=C(CC1CCCCC1)c1ccc(OC(F)F)c(OC(F)F)c1 | 5.4 µM | Non-toxic | 5.7 µM | 5.2 µM | 
COc1ccc(C(=O)CC2CCCCC2)cc1OC1CCOC1 (stereo not drawn) | 4.9 µM | Non-toxic | 1.7 µM | 2.6 µM | 
O=S(=O)(Cc1ccco1)Cc1nc(-c2ccccc2)cs1 | 3.8 µM | Non-toxic | 25 µM |  | 
COC(OC)c1ccc(C#N)c(SCC(=O)c2ccc(Cl)cc2)n1 | > 10 µM | Non-toxic | > 10 µM |  | 
O=C(Nc1csc2ccccc12)NC1Cc2ccccc2C1 | > 10 µM | Non-toxic |  |  | Activity [9]: Toxic
CCCC(O)c1ccc(OC)c(OC2CCOC2)c1 (stereo not drawn) | > 10 µM | Non-toxic | 471 µM | 100 µM | 
O=C(CN1CCc2ccccc21)Nc1nnc(-c2cccs2)s1 | > 10 µM | Non-toxic | > 10 µM |  | 
O=C(COc1ncnc2cc(Cl)ccc12)Nc1ccccc1Cl | > 10 µM | Non-toxic | > 10 µM |  | 
CCCC(=O)c1ccc(OC2CCOCC2)c(OC)c1 | 4 µM | Non-toxic | 4 µM | 60 µM | 
CCOC(=O)c1nc(C)nc(Sc2nnc(-c3ccccc3)[nH]2)c1C | 4.6 µM | Non-toxic | 6.4 µM |  | 
O=C(SCc1ccco1)c1csc(C2COc3ccccc3O2)n1 (stereo not drawn) | > 10 µM | Non-toxic | 25 µM |  | 
Fc1ccccc1Nc1ncnc2c1nnn2Cc1ccccc1 | > 10 µM | Non-toxic | > 10 µM |  | 
O=C(Nc1ccc(S(=O)(=O)N2CCCCC2)cc1)NC1CCCC1 | > 10 µM | Non-toxic |  |  | Activity [8]: Toxic
CCCC(=O)c1ccc(OC(F)F)c(Oc2ccccn2)c1 | 3.5 µM | Non-toxic | 10.3 µM | 40 µM | 
O=C(CC1CCCCC1)c1ccc(OC(F)F)c(OC2CCOC2)c1 (stereo not drawn) | 2.5 µM | Non-toxic | 4.4 µM | 0.667 µM | 
CCCCC(=O)c1ccc(OC)c(OC2CCOCC2)c1 | > 10 µM | Non-toxic | 2.1 µM | 0.72 µM | 

SMILES | IC50 [1] | Activity [3] | IC50 (Trypanosoma cruzi) | IC50 (Phosphodiesterase 4) | other results
O=S(=O)(Cc1noc(-c2ccc(Cl)cc2)n1)c1ccccn1 | 2.4 µM | Non-toxic |  |  | Activity [8]: Toxic
CCCCC(=O)c1ccc(OC2CCOCC2)c(OC)c1 | 3.5 µM | Non-toxic | 5.2 µM | 71 µM | inhibition [4]: Active; inhibition [5]: Active; inhibition [6]: Active; inhibition [7]: Active
O=S(=O)(Cc1noc(-c2ccno2)n1)Cc1ccco1 | 4.5 µM | Non-toxic |  |  | Activity [8]: Toxic
CCCC(O)c1ccc(OC)c(OC2CCOCC2)c1 (stereo not drawn) | > 10 µM | Non-toxic | 10 µM | 100 µM | 
CC(C)(C)c1cc2ncnc(NNC(=O)c3cccs3)c2s1 [GK03671] | 6.3 µM | Non-toxic | 4.8 µM |  | 
CCCCC(=O)c1ccc(OC2CCN(C(=O)OC(C)(C)C)CC2)c(OC)c1 | 3.1 µM | Non-toxic | 3.8 µM | 93 µM | 
O=C(CCCc1ccccc1)c1ccc(OC(F)F)c(OC(F)F)c1 | 2.5 µM | Non-toxic | 7.7 µM | 44 µM | 
CCCC(O)(C(=O)c1ccc(OC(F)F)c(Oc2ccccn2)c1)c1cnc2ccccc2c1 (stereo not drawn) | 3.9 µM | Non-toxic | 3.8 µM | 6 µM | 
COc1ccc(C(=O)CCC2CCCCC2)cc1OC1CCOC1 (stereo not drawn) | > 10 µM | Non-toxic | 6.1 µM | 1.9 µM | 
CSc1noc(-c2ccc(S(=O)(=O)NCc3ccccc3)s2)c1C#N | 4.3 µM | Non-toxic |  |  | Activity [9]: Toxic
C=CCn1c(=S)sc2c(Sc3nnc(-c4ccco4)o3)ncnc21 | 7 µM | Non-toxic | 5.4 µM |  | 
O=C(NCc1csc(-c2cccs2)n1)C1=Cc2ccccc2OC1 [SCR 01311] | 10 µM | Non-toxic | 25 µM |  | 
O=C(CCc1ccccc1)c1ccc(OC(F)F)c(OC(F)F)c1 | 2.2 µM | Non-toxic | 2.3 µM | 0.082 µM | 
COc1ccc(C=O)cc1OC1CCOC1 (stereo not drawn) | > 10 µM | Non-toxic | 122 µM |  | 
CCOC(=O)c1csc(COc2ccc(C3SCCS3)cc2)n1 | > 10 µM | Non-toxic |  |  | Activity [9]: Toxic
O=C(Cn1nnc(N2CCCC2)n1)N/N=C/c1ccncc1 | > 10 µM | Non-toxic |  |  | Activity [2]: Toxic
O=S(=O)(Cc1noc(-c2cccs2)n1)c1ccc(F)cc1 | > 10 µM | Non-toxic | > 10 µM |  | 
O=C(CCC1CCCCC1)c1ccc(OC(F)F)c(OC2CCOC2)c1 (stereo not drawn) | 5.3 µM | Non-toxic | 5.8 µM | 1.1 µM | 
CC(C)CC(=O)c1ccc(OC(F)F)c(OC2CCCC2)c1 | 3.2 µM | Non-toxic | 3.6 µM | 0.022 µM | 
CCCC(=O)c1ccc(OC)c(OC2CCOC2)c1 (stereo not drawn) | > 10 µM | Non-toxic | 68 µM | 0.43 µM | 
CCCCC(=O)c1ccc(OC2CCOC2)c(OC)c1 (stereo not drawn) | 5.1 µM | Non-toxic | 1.8 µM | 100 µM | inhibition [4]: Active; inhibition [5]: Active; inhibition [6]: Active; inhibition [7]: Active
CCCC(c1ccc(Oc2ccccn2)c(OC)c1)c1cnc2ccccc2c1 (stereo not drawn) | 3.3 µM | Non-toxic | 1.9 µM | 6 µM | 
O=C(CCCc1ccccc1)c1ccc(OC(F)F)c(OC2CCOC2)c1 (stereo not drawn) | 3.2 µM | Non-toxic | 3.1 µM | 0.626 µM | 
O=C1CC(Sc2ccc(Cl)cc2)C(=O)N1Cc1ccncc1 (stereo not drawn) | 10 µM | Non-toxic | > 10 µM |  | 
